# Measurements reported in publication PMC6120666 (The EMBO Journal, 2018).
# What was measured:
# Assay in all cases: Drug affinity chromatography with c-ponatinib and LC-MS/MS (ponatinib interactome)
# Assay type in all cases: binding
# [1] = target: T1, proteins of U2OS cell lysate (Homo sapiens, UniProt Q13247)
# T1 construct: Proteins enriched by c-ponatinib from U2OS cell lysate; endogenous in cells; host or cells: U2OS cell lysate
# Procedure, shortened: (§1)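 U2OS cell lysate in NP-40 lysis buffer (2 mg protein per pulldown) was incubated with amine-derivatized NHS beads for 2 h at 4 °C. Bound proteins were washed, eluted with 100 mM formic acid, reduced, alkylated and trypsin-digested, then identified by nano-UPLC–MS/MS on Orbitrap instruments with a 60 min gradient.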
# [2] = target: T2, proteins of U2OS cell lysate (Homo sapiens, UniProt Q16643)
# T2 construct: Proteins enriched by c-ponatinib from U2OS cell lysate; endogenous in cells; host or cells: U2OS cell lysate
# T2 sequence (Q16643 whole entry): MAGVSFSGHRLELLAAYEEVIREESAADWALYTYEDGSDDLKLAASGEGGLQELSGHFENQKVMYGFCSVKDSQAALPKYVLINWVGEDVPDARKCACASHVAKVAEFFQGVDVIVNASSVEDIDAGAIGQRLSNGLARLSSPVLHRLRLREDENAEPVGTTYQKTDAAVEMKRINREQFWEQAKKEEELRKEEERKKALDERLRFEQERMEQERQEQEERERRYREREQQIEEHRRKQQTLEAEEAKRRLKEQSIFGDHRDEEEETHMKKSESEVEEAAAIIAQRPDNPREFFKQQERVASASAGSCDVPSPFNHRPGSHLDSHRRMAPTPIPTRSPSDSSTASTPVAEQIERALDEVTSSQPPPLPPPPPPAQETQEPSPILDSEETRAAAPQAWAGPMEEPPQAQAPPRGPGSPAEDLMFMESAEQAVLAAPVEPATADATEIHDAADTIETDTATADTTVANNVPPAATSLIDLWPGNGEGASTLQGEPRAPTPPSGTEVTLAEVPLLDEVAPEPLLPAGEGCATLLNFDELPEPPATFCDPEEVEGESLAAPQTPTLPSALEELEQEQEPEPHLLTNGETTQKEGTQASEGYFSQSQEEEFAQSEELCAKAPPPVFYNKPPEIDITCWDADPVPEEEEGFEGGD
# Procedure, shortened: as §1
# [3] = target: T3, proteins of U2OS cell lysate (Homo sapiens, UniProt Q16186)
# T3 construct: Proteins enriched by c-ponatinib from U2OS cell lysate; endogenous in cells; host or cells: U2OS cell lysate
# T3 sequence (Q16186 whole entry): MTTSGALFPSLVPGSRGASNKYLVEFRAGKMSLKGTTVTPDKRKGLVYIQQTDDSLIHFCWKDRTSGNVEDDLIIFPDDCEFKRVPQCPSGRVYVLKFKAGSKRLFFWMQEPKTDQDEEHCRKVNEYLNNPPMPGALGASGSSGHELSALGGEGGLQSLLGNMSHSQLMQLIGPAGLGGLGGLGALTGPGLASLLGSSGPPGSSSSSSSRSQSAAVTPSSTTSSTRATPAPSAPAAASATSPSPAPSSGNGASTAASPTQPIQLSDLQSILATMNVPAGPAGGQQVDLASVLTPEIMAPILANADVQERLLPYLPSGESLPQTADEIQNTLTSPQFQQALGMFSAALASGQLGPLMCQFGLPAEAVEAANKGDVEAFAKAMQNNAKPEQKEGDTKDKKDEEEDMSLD
# Procedure, shortened: as §1
# [4] = target: T4, proteins of U2OS cell lysate (Homo sapiens, UniProt P62701)
# T4 construct: Proteins enriched by c-ponatinib from U2OS cell lysate; endogenous in cells; host or cells: U2OS cell lysate
# Procedure, shortened: as §1
# [5] = target: T5, proteins of U2OS cell lysate (Homo sapiens, UniProt P62263)
# T5 construct: Proteins enriched by c-ponatinib from U2OS cell lysate; endogenous in cells; host or cells: U2OS cell lysate
# Procedure, shortened: as §1
# [6] = target: T6, proteins of U2OS cell lysate (Homo sapiens, UniProt O75396)
# T6 construct: Proteins enriched by c-ponatinib from U2OS cell lysate; endogenous in cells; host or cells: U2OS cell lysate
# T6 sequence (O75396 whole entry): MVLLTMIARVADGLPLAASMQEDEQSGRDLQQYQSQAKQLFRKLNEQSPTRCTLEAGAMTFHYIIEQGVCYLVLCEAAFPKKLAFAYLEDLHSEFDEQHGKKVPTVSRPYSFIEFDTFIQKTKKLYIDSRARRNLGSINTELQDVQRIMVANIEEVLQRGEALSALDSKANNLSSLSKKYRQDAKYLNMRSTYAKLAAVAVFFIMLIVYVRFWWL
# Procedure, shortened: as §1
# [7] = target: T7, proteins of U2OS cell lysate (Homo sapiens, UniProt P04406)
# T7 construct: Proteins enriched by c-ponatinib from U2OS cell lysate; endogenous in cells; host or cells: U2OS cell lysate
# T7 sequence (P04406 whole entry): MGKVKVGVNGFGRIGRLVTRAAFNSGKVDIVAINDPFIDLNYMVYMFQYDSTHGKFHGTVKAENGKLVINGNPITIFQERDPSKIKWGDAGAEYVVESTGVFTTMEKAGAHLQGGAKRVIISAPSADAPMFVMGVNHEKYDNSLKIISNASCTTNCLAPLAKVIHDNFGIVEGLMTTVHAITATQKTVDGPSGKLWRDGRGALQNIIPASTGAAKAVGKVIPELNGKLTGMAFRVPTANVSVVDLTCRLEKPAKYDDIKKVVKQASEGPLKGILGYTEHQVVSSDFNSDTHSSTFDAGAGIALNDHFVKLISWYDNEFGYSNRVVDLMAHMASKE
# Procedure, shortened: as §1
# [8] = target: T8, proteins of U2OS cell lysate (Homo sapiens, UniProt P24539)
# T8 construct: Proteins enriched by c-ponatinib from U2OS cell lysate; endogenous in cells; host or cells: U2OS cell lysate
# T8 sequence (P24539 43-256): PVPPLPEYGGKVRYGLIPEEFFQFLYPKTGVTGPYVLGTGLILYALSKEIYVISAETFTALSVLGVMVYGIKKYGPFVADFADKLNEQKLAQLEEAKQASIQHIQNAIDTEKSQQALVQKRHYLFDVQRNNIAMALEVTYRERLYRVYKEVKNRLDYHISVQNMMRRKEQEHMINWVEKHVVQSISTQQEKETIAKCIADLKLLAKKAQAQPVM
# Procedure, shortened: as §1
# [9] = target: T9, proteins of U2OS cell lysate (Homo sapiens, UniProt Q13435)
# T9 construct: Proteins enriched by c-ponatinib from U2OS cell lysate; endogenous in cells; host or cells: U2OS cell lysate
# T9 sequence (Q13435 whole entry): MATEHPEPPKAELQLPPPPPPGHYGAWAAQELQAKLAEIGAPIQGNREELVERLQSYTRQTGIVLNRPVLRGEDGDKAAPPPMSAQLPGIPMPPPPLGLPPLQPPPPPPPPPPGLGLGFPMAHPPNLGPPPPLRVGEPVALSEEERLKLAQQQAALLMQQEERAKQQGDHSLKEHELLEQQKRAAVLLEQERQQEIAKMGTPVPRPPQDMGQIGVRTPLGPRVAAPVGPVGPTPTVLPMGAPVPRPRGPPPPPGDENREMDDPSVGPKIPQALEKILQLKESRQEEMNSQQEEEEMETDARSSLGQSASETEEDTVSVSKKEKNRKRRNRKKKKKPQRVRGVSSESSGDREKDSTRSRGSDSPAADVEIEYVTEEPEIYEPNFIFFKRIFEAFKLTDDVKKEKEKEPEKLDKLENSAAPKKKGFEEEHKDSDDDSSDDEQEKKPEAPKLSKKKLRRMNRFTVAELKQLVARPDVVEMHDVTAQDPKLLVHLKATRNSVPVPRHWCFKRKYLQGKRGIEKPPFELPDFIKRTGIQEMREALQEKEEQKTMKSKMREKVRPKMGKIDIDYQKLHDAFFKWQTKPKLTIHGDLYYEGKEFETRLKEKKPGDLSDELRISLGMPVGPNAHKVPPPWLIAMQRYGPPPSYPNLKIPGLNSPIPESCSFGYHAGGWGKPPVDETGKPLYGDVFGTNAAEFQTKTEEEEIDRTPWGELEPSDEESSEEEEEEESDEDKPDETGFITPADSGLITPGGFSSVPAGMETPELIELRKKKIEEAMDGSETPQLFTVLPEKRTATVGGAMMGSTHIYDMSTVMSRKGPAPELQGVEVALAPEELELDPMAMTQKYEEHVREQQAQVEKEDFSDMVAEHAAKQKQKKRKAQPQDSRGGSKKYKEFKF
# Procedure, shortened: as §1
# [10] = target: T10, proteins of U2OS cell lysate (Homo sapiens, UniProt Q15393)
# T10 construct: Proteins enriched by c-ponatinib from U2OS cell lysate; endogenous in cells; host or cells: U2OS cell lysate
# Procedure, shortened: as §1
# [11] = target: T11, proteins of U2OS cell lysate (Homo sapiens, UniProt Q15019)
# T11 construct: Proteins enriched by c-ponatinib from U2OS cell lysate; endogenous in cells; host or cells: U2OS cell lysate
# T11 sequence (Q15019 whole entry): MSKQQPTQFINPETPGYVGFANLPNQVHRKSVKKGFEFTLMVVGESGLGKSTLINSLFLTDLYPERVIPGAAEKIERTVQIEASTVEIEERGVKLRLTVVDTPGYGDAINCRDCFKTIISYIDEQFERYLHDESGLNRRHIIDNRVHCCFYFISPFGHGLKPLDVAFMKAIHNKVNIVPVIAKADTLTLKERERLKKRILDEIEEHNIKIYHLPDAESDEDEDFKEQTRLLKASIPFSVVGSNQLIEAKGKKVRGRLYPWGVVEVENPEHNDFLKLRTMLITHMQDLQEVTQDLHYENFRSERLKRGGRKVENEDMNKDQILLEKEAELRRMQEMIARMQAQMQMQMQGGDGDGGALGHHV
# Procedure, shortened: as §1
# [12] = test system: proteins of U2OS cell lysate
# Procedure, shortened: as §1
# [13] = target: T12, proteins of U2OS cell lysate (Homo sapiens, UniProt O75964)
# T12 construct: Proteins enriched by c-ponatinib from U2OS cell lysate; endogenous in cells; host or cells: U2OS cell lysate
# T12 sequence (O75964 whole entry): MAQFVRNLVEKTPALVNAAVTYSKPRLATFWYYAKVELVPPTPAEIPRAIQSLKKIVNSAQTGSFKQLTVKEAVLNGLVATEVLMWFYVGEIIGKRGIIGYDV
# Procedure, shortened: as §1
# [14] = target: T13, proteins of U2OS cell lysate (Homo sapiens, UniProt O43175)
# T13 construct: Proteins enriched by c-ponatinib from U2OS cell lysate; endogenous in cells; host or cells: U2OS cell lysate
# T13 sequence (O43175 whole entry): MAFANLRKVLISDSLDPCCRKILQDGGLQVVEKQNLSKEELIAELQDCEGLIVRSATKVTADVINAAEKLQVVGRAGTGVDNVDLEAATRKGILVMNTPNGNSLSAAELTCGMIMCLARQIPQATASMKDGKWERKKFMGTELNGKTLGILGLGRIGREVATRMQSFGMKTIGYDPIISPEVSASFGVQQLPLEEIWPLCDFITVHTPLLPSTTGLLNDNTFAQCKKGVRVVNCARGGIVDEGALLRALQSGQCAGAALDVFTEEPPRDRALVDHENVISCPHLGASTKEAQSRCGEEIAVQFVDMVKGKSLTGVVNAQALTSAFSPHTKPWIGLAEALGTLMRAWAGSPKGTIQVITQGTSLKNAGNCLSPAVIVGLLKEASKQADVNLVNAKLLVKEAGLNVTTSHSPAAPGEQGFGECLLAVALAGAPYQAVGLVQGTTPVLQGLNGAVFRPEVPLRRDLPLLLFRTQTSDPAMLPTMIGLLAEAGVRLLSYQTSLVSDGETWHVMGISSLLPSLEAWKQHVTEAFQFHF
# Procedure, shortened: as §1
# [15] = target: T14, proteins of U2OS cell lysate (Homo sapiens, UniProt Q96P70)
# T14 construct: Proteins enriched by c-ponatinib from U2OS cell lysate; endogenous in cells; host or cells: U2OS cell lysate
# Procedure, shortened: as §1
# [16] = target: T15, proteins of U2OS cell lysate (Homo sapiens, UniProt Q13347)
# T15 construct: Proteins enriched by c-ponatinib from U2OS cell lysate; endogenous in cells; host or cells: U2OS cell lysate
# T15 sequence (Q13347 whole entry): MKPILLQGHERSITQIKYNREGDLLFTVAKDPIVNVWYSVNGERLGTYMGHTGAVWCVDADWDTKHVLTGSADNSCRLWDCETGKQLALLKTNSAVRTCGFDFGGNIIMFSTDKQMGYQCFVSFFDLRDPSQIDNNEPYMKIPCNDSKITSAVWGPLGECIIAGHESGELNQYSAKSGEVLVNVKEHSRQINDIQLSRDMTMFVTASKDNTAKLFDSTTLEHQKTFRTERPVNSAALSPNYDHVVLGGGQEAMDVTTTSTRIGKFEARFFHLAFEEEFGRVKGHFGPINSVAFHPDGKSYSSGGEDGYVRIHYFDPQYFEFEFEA
# Procedure, shortened: as §1
# [17] = target: T16, proteins of U2OS cell lysate (Homo sapiens, UniProt Q15459)
# T16 construct: Proteins enriched by c-ponatinib from U2OS cell lysate; endogenous in cells; host or cells: U2OS cell lysate
# Procedure, shortened: as §1
# T1 sequence (Q13247 whole entry): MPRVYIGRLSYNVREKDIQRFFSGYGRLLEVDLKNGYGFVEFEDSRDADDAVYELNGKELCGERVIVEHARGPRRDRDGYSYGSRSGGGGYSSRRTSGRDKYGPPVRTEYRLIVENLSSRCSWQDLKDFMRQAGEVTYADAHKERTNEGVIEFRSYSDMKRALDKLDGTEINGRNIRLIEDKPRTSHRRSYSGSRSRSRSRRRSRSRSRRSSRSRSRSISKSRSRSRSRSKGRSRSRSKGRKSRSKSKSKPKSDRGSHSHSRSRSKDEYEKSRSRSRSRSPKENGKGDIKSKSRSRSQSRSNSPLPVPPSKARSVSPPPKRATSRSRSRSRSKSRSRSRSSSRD
smiles,measurement,setting,value
Cc1ccc(C(=O)Nc2ccc(CN3CCN(C)CC3)c(C(F)(F)F)c2)cc1C#Cc1cnc2cccnn12 [PON],Average LFQ PON_WT,"[1]; SRSF6, Serine/arginine-rich splicing factor 6",21.8714
same,Average LFQ PON_WT,"[2]; DBN1, Drebrin",22.4964
same,Average LFQ PON_WT,"[3]; ADRM1, Proteasomal ubiquitin receptor ADRM1",22.2159
same,Average LFQ PON_WT,"[4]; RPS4X, 40S ribosomal protein S4, X isoform",22.7536
same,Average LFQ PON_WT,"[5]; RPS14, 40S ribosomal protein S14",22.2776
same,Average LFQ PON_WT,"[6]; SEC22B, Vesicle-trafficking protein SEC22b",22.7294
same,Average LFQ PON_WT,"[7]; GAPDH, Glyceraldehyde-3-phosphate dehydrogenase",22.9925
same,Average LFQ PON_WT,"[8]; ATP5F1, ATP synthase subunit b, mitochondrial",22.7408
same,Average LFQ PON_WT,"[9]; SF3B2, Splicing factor 3B subunit 2",22.8369
same,Average LFQ PON_WT,"[10]; SF3B3, Splicing factor 3B subunit 3",22.7469
same,Average LFQ PON_WT,"[11]; SEPT2, Septin-2",22.2443
same,Average LFQ PON_WT,"[12]; ACTG1;ACTB;ACTG2;ACTA1;ACTC1;ACTA2, Actin, cytoplasmic 2",29.1554
same,Average LFQ PON_WT,"[12]; HIST1H1C;HIST1H1E;HIST1H1D;HIST1H1A, Histone H1.2",24.5034
same,Average LFQ PON_WT,"[13]; ATP5L, ATP synthase subunit g, mitochondrial",22.9891
same,Average LFQ PON_WT,"[14]; PHGDH, D-3-phosphoglycerate dehydrogenase",23.086
same,Average LFQ PON_WT,"[15]; IPO9, Importin-9",21.5093
same,Average LFQ PON_WT,"[16]; EIF3I, Eukaryotic translation initiation factor 3 subunit I",22.8398
same,Average LFQ PON_WT,"[17]; SF3A1, Splicing factor 3A subunit 1",21.9763
"Cc1ccc(C(=O)Nc2ccc(CN3CCN(CCCN)CC3)c(C(F)(F)F)c2)cc1C#Cc1cnc2cccnn12 [c-ponatinib, reference compound]",Average LFQ intensity,"[1]; captured protein SRSF6, Rank 196",21.8714
same,Average LFQ intensity,"[2]; captured protein DBN1, Rank 158",22.4964
same,Average LFQ intensity,"[3]; captured protein ADRM1, Rank 178",22.2159
same,Average LFQ intensity,"[4]; captured protein RPS4X, Rank 140",22.7536
same,Average LFQ intensity,"[5]; captured protein RPS14, Rank 169",22.2776
same,Average LFQ intensity,"[6]; captured protein SEC22B, Rank 146",22.7294
same,Average LFQ intensity,"[7]; captured protein GAPDH, Rank 124",22.9925
same,Average LFQ intensity,"[8]; captured protein ATP5F1, Rank 144",22.7408
same,Average LFQ intensity,"[9]; captured protein SF3B2, Rank 136",22.8369
same,Average LFQ intensity,"[10]; captured protein SF3B3, Rank 141",22.7469
same,Average LFQ intensity,"[11]; captured protein 2002-09-01 (Septin-2), Rank 174",22.2443
same,Average LFQ intensity,"[12]; captured protein ACTR1A;ACTR1B, Rank 131",22.8935
same,Average LFQ intensity,"[12]; captured protein ATP1A1;ATP1A3;ATP1A2, Rank 167",22.3247
same,Average LFQ intensity,"[12]; captured protein CDK1;CDK2, Rank 143",22.743
same,Average LFQ intensity,"[12]; captured protein DYNLRB1;DYNLRB2, Rank 170",22.2764
same,Average LFQ intensity,"[12]; captured protein GNB2;GNB4;GNB1, Rank 150",22.669
same,Average LFQ intensity,"[12]; captured protein H3F3B;H3F3A;HIST2H3A;HIST3H3;HIST1H3A;H3F3C;HIST2H3PS2, Rank 159",22.4876
same,Average LFQ intensity,"[12]; captured protein HNRNPA1;HNRNPA1L2, Rank 216",21.6974
same,Average LFQ intensity,"[12]; captured protein LUC7L2;LUC7L, Rank 142",22.7445
same,Average LFQ intensity,"[12]; captured protein MYL12A;MYL12B, Rank 201",21.8427
same,Average LFQ intensity,"[12]; captured protein OGDH;OGDHL, Rank 189",22.0277
same,Average LFQ intensity,"[12]; captured protein PSMA7;PSMA8, Rank 184",22.0977
same,Average LFQ intensity,"[12]; captured protein RAB11A;RAB11B, Rank 162",22.3634
same,Average LFQ intensity,"[12]; captured protein RPS10;RPS10P5, Rank 217",21.6692
same,Average LFQ intensity,"[12]; captured protein RPS26;RPS26P11, Rank 219",21.6239
same,Average LFQ intensity,"[12]; captured protein RPS27L;RPS27, Rank 208",21.7512
same,Average LFQ intensity,"[12]; captured protein SNRPN;SNRPB, Rank 206",21.7664
same,Average LFQ intensity,"[13]; captured protein ATP5L, Rank 125",22.9891
same,Average LFQ intensity,"[14]; captured protein PHGDH, Rank 119",23.086
same,Average LFQ intensity,"[15]; captured protein IPO9, Rank 229",21.5093
same,Average LFQ intensity,"[16]; captured protein EIF3I, Rank 135",22.8398
same,Average LFQ intensity,"[17]; captured protein SF3A1, Rank 193",21.9763
